{
  "source": "ChEMBL document CHEMBL5647693",
  "about": "“Molecular basis underlying resistance to Mps1/TTK inhibitors” (Oncogene, 2016)",
  "experiment_in_all_cases": "cells",
  "assay_type_in_all_cases": "functional, cell-based",
  "key": {"DLD-1 [1]": {"test_system": "DLD-1", "conditions": "Homo sapiens, DLD-1, 120 h"}, "HCT-116 [2]": {"test_system": "HCT-116", "conditions": "Homo sapiens, HCT-116, 120 h"}, "U2OS": {"test_system": "U2OS", "conditions": "Homo sapiens, 120 h"}, "HeLa [3]": {"test_system": "HeLa", "conditions": "Homo sapiens, 120 h"}, "DLD-1 [4]": {"test_system": "DLD-1", "conditions": "Homo sapiens, DLD-1, 120 h", "remark": "listed apart in the source"}, "HeLa [5]": {"test_system": "HeLa", "conditions": "Homo sapiens, 120 h", "remark": "listed apart in the source"}, "HeLa [6]": {"test_system": "HeLa", "conditions": "Homo sapiens, 120 h", "remark": "listed apart in the source"}, "HeLa [7]": {"test_system": "HeLa", "conditions": "Homo sapiens, 120 h", "remark": "listed apart in the source"}, "HCT-116 [8]": {"test_system": "HCT-116", "conditions": "Homo sapiens, HCT-116, 120 h", "remark": "listed apart in the source"}, "HCT-116 [9]": {"test_system": "HCT-116", "conditions": "Homo sapiens, HCT-116, 120 h", "remark": "listed apart in the source"}, "HCT-116 [10]": {"test_system": "HCT-116", "conditions": "Homo sapiens, HCT-116, 120 h", "remark": "listed apart in the source"}, "DLD-1 [11]": {"test_system": "DLD-1", "conditions": "Homo sapiens, DLD-1, 120 h", "remark": "listed apart in the source"}},
  "data": [
    {"smiles": "c1nc2c(NC3CCCCC3)nc(Nc3ccc(N4CCOCC4)cc3)nc2[nH]1", "note": "[REVERSINE]", "values": [
      {"measurement": "IC50", "setting": "DLD-1 [1]", "value": 120, "unit": "nM"},
      {"measurement": "IC50", "setting": "HCT-116 [2]", "value": 78.9, "unit": "nM"},
      {"measurement": "IC50", "setting": "U2OS", "value": 154, "unit": "nM"},
      {"measurement": "IC50", "setting": "HeLa [3]", "value": 431, "unit": "nM"},
      {"measurement": "IC50", "setting": "DLD-1 [4]", "value": "> 2000", "unit": "nM"},
      {"measurement": "IC50", "setting": "HeLa [5]", "value": 290, "unit": "nM"},
      {"measurement": "IC50", "setting": "HeLa [6]", "value": 116, "unit": "nM"},
      {"measurement": "IC50", "setting": "HeLa [7]", "value": 125, "unit": "nM"},
      {"measurement": "IC50", "setting": "HCT-116 [8]", "value": 138, "unit": "nM"},
      {"measurement": "IC50", "setting": "HCT-116 [9]", "value": 530, "unit": "nM"},
      {"measurement": "IC50", "setting": "HCT-116 [10]", "value": 70, "unit": "nM"},
      {"measurement": "IC50", "setting": "DLD-1 [11]", "value": 136, "unit": "nM"}
    ]}
  ]
}
